From patent US20170258761A1, “Pharmaceutical Compositions Comprising Canagliflozin” (Sandoz AG, priority 2014, published 2017)
≈ marks a conversion by molar mass, not a printed value. Like-named read-outs stand apart in the source and are kept apart here. Values belong to the compound of their own block, whether it stands above or below them.

What was measured:
Type in all cases: physicochemical
[1] = Equilibrium aqueous solubility at 25 °C (HPLC); conditions: water, 25 ± 1° C.
Procedure: As described in Example 5 of the co-pending application PCT/EP2014/059281, the aqueous solubilities of forms HxA and HxB of the present invention and the hemihydrate of Canagliflozin described in WO 2008/069327 A1 were determined by the equilibrium solubility method. Saturated solutions of Canagliflozin, obtained by stirring 50 mg of each crystalline form in 50 mL water were prepared and stirred at 25±1° C. After 60 minutes of stirring, three samples were withdrawn, filtered through 0.45 μm syringe filters and the filtrates were directly analyzed by HPLC.
Using six concentration points of known Canagliflozin concentrations a calibration line was fitted by linear regression.

[2] = Influence of water activity on physical stability of Canagliflozin; conditions: samples exposed to 30, 40, 50, 60 RH %, then 50° C. for 14 days
Procedure: The influence of water activity on physical stability of Canagliflozin were further tested. Prior storage at stress stability conditions samples were exposed to different relative humidity (30, 40, 50 and 60 RH %). After storage at elevated temperature (50° C.) for 14 days samples were tested for water activity and polymorphic form. It was established that Canagliflozin was physically stable when water activity was≦0.3. Results confirmed that appropriate dryness of the samples is critical for product stability.
The influence of water activity of the formulation on physical stability of Canagliflozin was further tested. Prior storage at stress stability conditions samples were exposed to different relative humidity (30, 40, 50 and 60 RH %). After storage at elevated temperature (50° C.) for 14 days samples were tested for water activity and polymorphic form. It was established that Canagliflozin was physically stable when water activity was≦0.4. Results confirmed that appropriate dryness of the samples is critical for product stability (see Table 14, showing Examples 2 and 7 as exemplary samples).

[3] = Equilibrium solubility of Canagliflozin in McIlvaine buffer, FaSSIF and FeSSIF with excipients; conditions: 37 °C, thermodynamic from solid
Procedure: Inhibition of precipitation and supersaturation effects were also evaluated in more biorelevant dissolution media, FaSSIF and FeSSIF, prepared according to Dressman et al. (Dressman et al. Dissolution testing as a prognostic tool for oral drug absorption: immediate release dosage forms. Pharm Res, 1998)). Excipients were used in 1 mg/ml concentration. […] All tests were performed in duplicate.

[4] = as above; conditions: 37 °C, thermodynamic from solid; remark: listed apart in the source
[5] = Water activity of excipients, normal and dried; conditions: for Water activity dry (#): excipient dried for 4 hours at ambient temperature in a vacuum chamber; for Water activity normal (*): excipient exposed to 40% RH for 24 hours at ambient temperature
Procedure: The influence of water activity of each excipient on chemical and physical stability of Canagliflozin was further tested.
In Table 12, the normal (*) excipients mean that they were exposed to 40% RH for 24 hours at ambient temperature; and the dry (#) excipients mean that they were dried for 4 hours at ambient temperature in a vacuum chamber.

[6] = Precipitation inhibition screening of excipients with nephelometer; conditions: McIlvaine buffer pH 6.8
Procedure: In vitro high-throughput precipitation inhibition screening with nephelometer was performed for different excipients in McIlvaine buffer pH 6.8 at 1%, 0.1%, and 0.01% (w/v) according to the procedure published in Petrusevska et al (Petrusevska et al. Evaluation of light scattering and turbidity microtiter plate-based methods for detection of the excipient-mediated drug precipitation inhibition. Eur J Pharm Biopharm, 2013). The ratio between turbidity signal for each tested concentration of selected excipient with Canagliflozin and plain buffer containing only Canagliflozin were determined.

[7] = Solubility and dynamic solubility of amorphous Canagliflozin versus hemihydrate; conditions: 37° C., shaking, HPLC
Procedure: Additionally dynamic solubility in water was determined at 0.5 h, 1 h and 24 h time points (37° C., shaking, HPLC determination).

[8] = Chemical stability in binary mixtures with excipients; conditions: 1 g + 1 g excipient of Table 9, tablets, 50° C., sealed glass vial, 14 days
Procedure: Canagliflozin degradation products were followed by high performance liquid chromatography using the following chromatographic method. Samples were dissolved in a mixture of 60 w/w % acetonitrile in buffer pH=5 (0.77 g of CH3OONH4 in 1 L of water, pH adjusted to pH=5 with acetic acid) to achieve a concentration of about 0.2 mg/ml of Canagliflozin. The sample solution was injected into an UHPLC system with a BEH C18 column (1.7 micrometer particles) using binary gradient elution. Mobile phase A consisted of mixture of 70 w/w % buffer with pH=5 in acetonitrile and mobile phase B consisted of acetonitrile. Gradient elution was performed according to the following program: mobile phase A (%)/time (min): 100%/0 min; 100%/5 min; 14%/[…]; 40%/35 min; 15%/40 min; 15%/45 min. The detector was set to a wavelength of 290 nm and impurities quantitated as area % with no response factors applied. Stability of samples was monitored by exposing them to elevated temperature (50° C.) in a sealed glass vial for 14 days. After storage, samples were analysed and the amounts of degradation products measured by UHPLC. The extent of degradation was determined by subtracting the total amount of degradation products of a […] from the total amount of degradation of a […].

SMILES: Cc1ccc([C@@H]2O[C@H](CO)[C@@H](O)[C@H](O)[C@H]2O)cc1Cc1ccc(-c2ccc(F)cc2)s1 [1-(β-D-glucopyranosyl)-4-methyl-3-[5-(4-fluorophenyl)-2-thienylmethyl]benzene]
solubility at 60 min ([1]; 25 °C, thermodynamic from solid, 60 minutes of stirring, read-out: Abs. Solubilities): 18 µg/mL (≈ 0.0405 mM)

SMILES: OC[C@H]1O[C@@H](O[C@H]2[C@H](O)[C@@H](O)C(O)O[C@@H]2CO)[C@H](O)[C@@H](O)[C@H]1O (stereo partly drawn) [Lactose anhydrous]
Water activity dry (#) [5]: 14.8
Water activity normal (*) [5]: 28.6

SMILES: CCCCCCCCCCCCCCCCCC(=O)[O-].CCCCCCCCCCCCCCCCCC(=O)[O-].[Mg+2] [Mg stearate]
Water activity dry (#) [5]: 15.9
Water activity normal (*) [5]: 26.6

SMILES: CCCCCCCCCCCCOS(=O)(=O)[O-].[Na+] [Texapon, Sodium Lauryl Sulfate]
time Canagliflozin supersaturation was sustained ([6]; excipient at highest concentration tested (1% w/v)): 10 min
rate of canagliflozin dissolution in the presence of excipient ([6]; highest concentration tested): fastest

The next lines start with results.

water activity at which Canagliflozin was physically stable ([2]; Example A (non-stoichiometric hydrate)): ≤ 0.3
water activity at which Canagliflozin was physically stable ([2]; Example B (amorphous formulation)): ≤ 0.4
solubility thermodynamic at 24 h ([3]; FaSSIF, pH 6.5, aqueous with cosolvent or surfactant or cyclodextrin, with Texapon 1 mg/ml, 24 h, read-out: Equilibrium solubility in FaSSIF pH 6.5): 7980 µg/mL (≈ 18 mM)
solubility thermodynamic at 24 h ([3]; FaSSIF, pH 6.5, aqueous with cosolvent or surfactant or cyclodextrin, with Texapon + HPMC 603, each 1 mg/ml, 24 h, read-out: Equilibrium solubility in FaSSIF pH 6.5): 8480 ± 180 µg/mL
solubility thermodynamic at 24 h ([3]; FeSSIF, pH 5.5, aqueous with cosolvent or surfactant or cyclodextrin, with Texapon 1 mg/ml, 24 h, read-out: Equilibrium solubility in FeSSIF pH 5.5): 25000 ± 1340 µg/mL (≈ 56.2 mM)
solubility thermodynamic at 24 h ([3]; FeSSIF, pH 5.5, aqueous with cosolvent or surfactant or cyclodextrin, with Texapon + HPMC 603, each 1 mg/ml, 24 h, read-out: Equilibrium solubility in FeSSIF pH 5.5): 27800 ± 2350 µg/mL
solubility thermodynamic at 24 h ([3]; FeSSIF, pH 5.5, fessif, no excipient, 24 h incubation, read-out: Equilibrium solubility in FeSSIF pH 5.5): 21000 ± 1030 µg/mL (≈ 47.3 mM)
solubility thermodynamic at 24 h ([4]; FaSSIF, pH 6.5, fassif, no excipient, 24 h incubation, read-out: Equilibrium solubility in FaSSIF pH 6.5): 5310 ± 970 µg/mL (≈ 11.9 mM)
solubility thermodynamic at 24 h ([4]; McIlvaine buffer, pH 6.5, aqueous buffer, buffer, no excipient, 24 h incubation, read-out: Equilibrium solubility in McIlvaine buffer pH 6.5): 21 ± 1 µg/mL (≈ 0.0472 mM)
solubility thermodynamic at 24 h ([4]; McIlvaine buffer, pH 6.5, aqueous with cosolvent or surfactant or cyclodextrin, with HPMC 606 1 mg/ml, 24 h, read-out: Equilibrium solubility in McIlvaine buffer pH 6.5): 62 ± 7 µg/mL (≈ 0.139 mM)
solubility thermodynamic at 24 h ([4]; McIlvaine buffer, pH 6.5, aqueous with cosolvent or surfactant or cyclodextrin, with Texapon 1 mg/ml, 24 h, read-out: Equilibrium solubility in McIlvaine buffer pH 6.5): 2850 ± 332 µg/mL (≈ 6.4 mM)
solubility thermodynamic at 24 h ([4]; McIlvaine buffer, pH 6.5, aqueous with cosolvent or surfactant or cyclodextrin, with Texapon + HPMC 603, each 1 mg/ml, 24 h, read-out: Equilibrium solubility in McIlvaine buffer pH 6.5): 2580 ± 36 µg/mL
SMILES: Cc1ccc([C@@H]2O[C@H](CO)[C@@H](O)[C@H](O)[C@H]2O)cc1Cc1ccc(-c2ccc(F)cc2)s1 [Canagliflozin, 1-(β-D-glucopyranosyl)-4-methyl-3-[5-(4-fluorophenyl)-2-thienylmethyl]benzene]

solubility compared to crystalline Canagliflozin hemihydrate ([7]; pH 1.2, 4.5 and 6.8): increased solubility
degradation products (impurities) in binary mixtures with excipients [8]: no increase in impurities was observed
SMILES: Cc1ccc([C@@H]2O[C@H](CO)[C@@H](O)[C@H](O)[C@H]2O)cc1Cc1ccc(-c2ccc(F)cc2)s1 [amorphous Canagliflozin, 1-(β-D-glucopyranosyl)-4-methyl-3-[5-(4-fluorophenyl)-2-thienylmethyl]benzene]
dynamic solubility in water compared to crystalline Canagliflozin hemihydrate ([7]; 0.5 h, 1 h and 24 h): increased solubility as well as dynamic solubility

Rel. Solubilities [1]: 100%
increased aqueous solubility compared to the crystalline hemihydrate of WO 2008/069327 A1 [1]: 10%
Abs. Solubilities ([1]; 60 minutes of stirring): 20 µg/mL
SMILES: Cc1ccc([C@@H]2O[C@H](CO)[C@@H](O)[C@H](O)[C@H]2O)cc1Cc1ccc(-c2ccc(F)cc2)s1 [form HxA, 1-(β-D-glucopyranosyl)-4-methyl-3-[5-(4-fluorophenyl)-2-thienylmethyl]benzene form HxA]

Rel. Solubilities [1]: 100%
increased aqueous solubility compared to the crystalline hemihydrate of WO 2008/069327 A1 [1]: 10%
Abs. Solubilities ([1]; 60 minutes of stirring): 20 µg/mL
SMILES: Cc1ccc([C@@H]2O[C@H](CO)[C@@H](O)[C@H](O)[C@H]2O)cc1Cc1ccc(-c2ccc(F)cc2)s1 [form HxB, 1-(β-D-glucopyranosyl)-4-methyl-3-[5-(4-fluorophenyl)-2-thienylmethyl]benzene form HxB]

Rel. Solubilities [1]: 90%
SMILES: Cc1ccc([C@@H]2O[C@H](CO)[C@@H](O)[C@H](O)[C@H]2O)cc1Cc1ccc(-c2ccc(F)cc2)s1 [hemihydrate of WO 2008/069327 A1 (=Hy0.5)] [1-(β-D-glucopyranosyl)-4-methyl-3-[5-(4-fluorophenyl)-2-thienylmethyl]benzene]
degradation products (impurities) in binary mixtures with excipients ([8]; listed as Canagliflozin hemihydrate): impurities were increased when containing excipients such as Syloid, PEG 6000 and Polyoxyl 40 hydrogenated castor oil
